Data on three molecules can be found in publication PMC9622310 (Biomolecules & Therapeutics, 2022).

For data set [1] the following is noted: ref Bergan et al., 1981; cited from earlier work.
The format of data set [2] is in vivo, rat. The settings on record: for Ae0-24 h: unchanged in urine for 24 h; for clearance: CL; for CL renal: CLR; for Vd: Vss.
Data set [3] can be described thus: Rat plasma protein binding of tofacitinib by equilibrium dialysis. In kind it is in vitro ADME. The following applies: pH 7.4. (Equilibrium dialysis compares concentrations on both sides of a semipermeable membrane.)
A short description of data set [4]: Tissue distribution of tofacitinib 30 min after intravenous administration. It is filed as in vivo, rat. The settings on record: 30 min after intravenous 10 mg/kg.
For data set [5] the following is noted: oral 20 mg/kg; for GI24 h: remaining in gastrointestinal tract at 24 h, 20 mg/kg; for Ae0-24 h: unchanged in urine for 24 h.
For data set [6] the following is noted: hepatic microsomes.
For data set [7] the following is noted: intestinal microsomes.
For data set [8] the following is noted: oxidation and N-demethylation; ref Dowty et al., 2014; cited from earlier work.
For data set [9] the following is noted: oral 20 mg/kg, male Sprague-Dawley rats; ref Lee and Kim, 2019; cited from earlier work.
For a further data set, the system named is 4% human serum albumin. The following applies: 1 to 100 μg/mL; ref Kim et al., 2020; cited from earlier work.
The next data set deals with P-gp. The settings on record: ref Hussar, 2014; cited from earlier work.
A further data set can be described thus: in vivo. The following applies: rat, plasma, po, 20 mg/kg; for CL renal: CLR.
A further data set is described as follows: in vitro. The settings on record: rat, intestinal microsomes, pH 7.4, CLint.
The test system of another data set is rats. Briefly: Induction of ulcerative colitis by 5% DSS in drinking water. In kind it is in vivo, rat.
The next data set concerns CYP3A1/2. The data set can be described thus: Immunoblot analysis of CYP3A1/2 in hepatic and intestinal microsomes of DSS rats. Also on record: species or system rat.
The subject of another data set is CYP2C11. Briefly: Immunoblot analysis of CYP2C11 in hepatic and intestinal microsomes of DSS rats. Also on record: species or system rat. In general terms: In western blotting, separated proteins are transferred to a membrane and probed.
[10] abbreviates: rat, plasma, iv, 10 mg/kg, intravenous 10 mg/kg, CON rats.
[11] abbreviates: rat, plasma, iv, 10 mg/kg, intravenous 10 mg/kg, DSS rats.

“And” between values parts separate entries of the source, which are not always exact repeats. Identical values can stand only once. Like-named read-outs stand apart in the source and are kept apart here.

With `Cc1ncc([N+](=O)[O-])n1CCO` [metronidazole], the “Increase of plasma concentration in patients with ulcerative colitis” value in [1] was 50%.
As a reminder, the half-life is how long it takes for the measured level to halve. Low values mean fast loss, high ones slow loss. The AUC is the area under the concentration-time curve, a measure of exposure. Low values mean less exposure, high ones more exposure. One may read the clearance as the rate of elimination divided by the concentration. A higher clearance goes with a high capacity for elimination. As usually defined, the MRT is the average time that molecules of a dose stay in the body. By Vd is commonly meant a proportionality between amount in the body and measured concentration, not a real space. Low readings indicate little distribution into tissue, high ones wide distribution into tissue. For orientation: fraction unbound means the share of the substance not bound to proteins or other matrix. One may read the Cmax as the peak of the concentration-time curve. What is called Tmax is the time at which the peak concentration occurs. Broadly, the microsomal CLint is the rate of metabolic loss divided by the concentration. Lower therefore signals slow turnover. For `C[C@@H]1CCN(C(=O)CC#N)C[C@@H]1N(C)c1ncnc2[nH]ccc12` [tofacitinib, Tofacitinib], the “Decrease of CL in DSS rats compared with CON rats” value in data set [2] (intravenous 10 mg/kg) was 47.7%. Besides, the “Decrease of CLNR in DSS rats compared with CON rats” value in data set [2] (intravenous 10 mg/kg) came to 45.3%. For the same molecule, the results for the “Decrease of CLR in DSS rats compared with CON rats” value in data set [2] (intravenous 10 mg/kg) and in data set [5] were 77.6% and 64.0%, respectively. Also, in data set [2] (intravenous 10 mg/kg), the “Decrease of Vss in DSS rats compared with CON rats” value is given as 43.2%. Further, the “Increase of AUC in DSS rats compared with CON rats” value in data set [2] (intravenous 10 mg/kg) came out at 92.3%; in data set [5], 85.5%. Further, the CLNR in data set [2] (intravenous 10 mg/kg, CON rats) was found to be 34.0 ± 5.54 mL/min/kg; in data set [2] (intravenous 10 mg/kg, DSS rats), 18.6 ± 1.65 mL/min/kg. The Ae0-24 h in data set [2] (intravenous 10 mg/kg, CON rats) is reported as 3.97 ± 2.93 % of dose; in [2] (intravenous 10 mg/kg, DSS rats), 2.73 ± 1.89 % of dose; in [5] (CON rats), 4.13 ± 2.71 % of dose; in data set [5] (DSS rats), 2.40 ± 1.26 % of dose. The “CLR′ (CLR recalculated from free fraction in plasma)” value in [2] (intravenous, CON rats) was 5.07 mL/min/kg; in data set [2] (intravenous, DSS rats) it was 1.10 mL/min/kg. The “Contribution of CLR to CL” value in data set [2] (intravenous, CON rats) was determined as 8.27%; in [2] (intravenous, DSS rats), 3.55%. The GI24 h entry in data set [2] (intravenous, both CON and DSS rats) was “less than 0.484 % of the intravenous dose”; in [5] (CON rats), 0.124 % of dose and 0.124 ± 0.141 % of dose; in data set [5] (DSS rats), 1.10 % of dose and 1.10 ± 0.782 % of dose. The half-life in [2] (rat, plasma, iv, 10 mg/kg) amounted to 31 ± 5.36 min. The AUC in data set [2] (rat, plasma, iv, 10 mg/kg, intravenous 10 mg/kg, CON rats (n=7)) is 4520 ng·h/mL; in data set [2] (rat, plasma, iv, 10 mg/kg, intravenous 10 mg/kg, DSS rats (n=6)) it was 8680 ng·h/mL; in “in vivo” (CON rats (n=6)), 2650 ng·h/mL; in the data set “in vivo” (DSS rats (n=6)), 4920 ng·h/mL. Besides, the values for the clearance in data set [2] (setting [10]) and in data set [2] (setting [11]) were 37.1 ± 5.68 mL/min/kg and 19.4 ± 2.26 mL/min/kg, respectively. Moreover, the CL renal was 3.07 ± 1.4 mL/min/kg in data set [2] (setting [10]), 0.688 ± 0.149 mL/min/kg in data set [2] (setting [11]), 5.47 ± 4.05 mL/min/kg in the data set “in vivo” (CON rats) and 1.97 ± 1.14 mL/min/kg in “in vivo” (DSS rats). For the same molecule, the values for the MRT in data set [2] (setting [10]) and in [2] (setting [11]) were 20.3 min and 31.9 min, respectively. For the same molecule, the results for the Vd in data set [2] (setting [10]) and in data set [2] (setting [11]) were 0.767 ± 0.286 L/kg and 0.436 ± 0.164 L/kg, respectively. The fraction unbound at 24 h, 10 μg/mL in [3] (fresh plasma from CON and DSS rats) is 0.606 to 0.626; in [3] (fresh plasma from CON rats) it was 0.606; in [3] (fresh plasma from DSS rats) it was 0.626. The “Concentrations in stomach, small intestine and mesentery, DSS versus CON rats” value in data set [4] is given as “significantly higher”. For the same molecule, in [4], the “Plasma concentration, DSS versus CON group” value was “significantly higher”. Besides, the “Distribution in rat tissues” value in [4] (both groups) is reported as “widely distributed”. For the same molecule, the “Decrease of CLint in DSS rats compared with CON rats” value in [6] amounted to 75.5%; in data set [7] (p=0.0679) it was 39.1%. In addition, the “Km, DSS versus CON rats” value in data set [6] and in data set [7] was “comparable” in each case. Also, the “Fraction metabolized by hepatic CYP3A4 and CYP2C19” value in [8] is “approximately 70%”. Moreover, in [9], the F is on record as 29.1%. Besides, the “Concentration dependence of binding to 4% human serum albumin” value in the data set on 4% human serum albumin is on record as “independent of tofacitinib concentrations”. In the data set with P-gp, the P-gp substrate status result is listed as “substrate of P-gp”. In addition, the Cmax came to 2360 ± 587 ng/mL in the data set “in vivo” (CON rats) and 2460 ± 1050 ng/mL in the data set “in vivo” (DSS rats). The figures for the Tmax in the data set “in vivo” (CON rats) and in “in vivo” (DSS rats) were 19.2 min and 25 min, respectively. Besides, the microsomal CLint in “in vitro” (CON rats) amounted to 5.81 µL/min/mg; in the data set “in vitro” (DSS rats), 3.54 µL/min/mg.
As for dextran sulfate sodium [DSS], the “Decrease in colon length compared to CON rats” value in the data set on rats (5% DSS (w/v) in drinking water for 10 days) is 49.0%. The same molecule registered a Body weight decrease in the data set on rats (5% DSS (w/v) in drinking water for 10 days, DSS rats) of 1.14%. Also, the CLCR in the data set with rats (DSS rats) came out at 2.68 mL/min/kg. The “Decrease of plasma albumin” value with rats (DSS rats versus CON rats) worked out at 15.8%. Also, the “Increase of urea nitrogen” value in the data set with rats (DSS rats versus CON rats) worked out at 86.4%. Further, the results for the “Decrease in protein expression of CYP3A1/2” value with CYP3A1/2 (intestine of DSS rats) and in the data set on CYP3A1/2 (liver of DSS rats) were 99.3% and 80.1%, respectively. Further, the “Decrease in protein expression of CYP2C11” value in the data set on CYP2C11 (intestine of DSS rats) came to 78.5%; in the data set with CYP2C11 (liver of DSS rats), 43.3%.
